Patent US20230338356A1, “TREATMENT OF AUTOIMMUNE SKIN DISEASE” (Aslan Pharmaceuticals Pte Ltd, priority 2022, published 2023)

What was measured:
[1] = tested on: Krt14-KitL* (SCF) mice; assay: Vitiligo scoring in vitiligo mouse model; format: in vivo; settings: 6 weeks (30 treatment days)
[2] = tested on: PMEL T cell; assay: Flow cytometry of PMEL T cell counts in tissues of vitiligo mouse model; format: in vivo
[3] = tested on: C3H/HeJ mice; assay: Hair coverage in alopecia areata (AA) skin-graft mouse model; format: in vivo; settings: 150 or 300 mg/kg/day oral gavage once daily, week 8 time point (10 weeks after engraftment), vs vehicle
Procedure: The C3H/HeJ mouse strain is known to spontaneously develop alopecia (AA) at a low frequency over a prolonged time frame. Transplantation of AA-affected skin from a C3H/HeJ mouse to unaffected C3H/HeJ recipients will induce the development of AA in nearly 100% of recipients over 4-8 weeks. Accordingly, to produce the AA mouse model, AA-affected C3H/HeJ skin was grafted onto groups of unaffected C3H/HeJ mice. The following treatment groups (n=10 per treatment group) were tested: • 1. Vehicle 0.5% methylcellulose (negative control) • 2. 150 mg/kg/day farudodstat • 3. 300 mg/kg/day farudodstat Treatments were administered once daily by oral gavage starting 2 weeks after engraftment and concluded after 12 weeks (84 days) of treatment. Photographs were taken at baseline, and every 4 weeks until the end of study Ventral hair growth was scored based on the photographs. Any mouse that had >98% hair coverage was classified as ‘no hair loss’.

[4] = tested on: proliferating CD3+ T cells in human hair follicles; assay: CD3/Ki-67 immunofluorescence of cultured human hair follicles after CD3/CD28 activation; format: cell-based; settings: 70 or 140 nM farudodstat + 25 μg/ml CD3/CD28, vs CD3/CD28 alone
Procedure: (§1) Human hair follicle samples were obtained after informed after informed, written patient consent and ethics committee approval (University of Muenster 2015-602-f-S) and the Comite de Bioetica de la Universidad Fernando Pessoa Canarias (03 (2020-06-22)). This study was conducted according to the Declaration of Helsinki principles.
Cryosections of cultured human hair follicles were immunostained, using antibodies against the human CD3 transmembrane protein of T-lymphocytes (THERMOFISHER, Cat. 15-0038-45, clone UCHT1) and Ki-67, which is a marker of proliferation (ABCAM. Cat. ab15580). Fluorescent images were acquired using the Keyence BZ-X810 inverted microscope and CD3 and double positive cells were counted in epithelium and mesenchyme along the entire hair follicle. The number of proliferative CD3+ T-cells is given as a total number of double positive cells per hair follicle.
(§2) Human hair follicles (HF) were cultured on Day 0 in 48-well plates (1 HF per […]) at 37° C. with 5% CO2 in a media William's E media+RPMI (Gibco, Life Technologies) supplemented with 10 ng/ml hydrocortisone (Sigma Aldrich), 10 μg/ml insulin (Sigma Aldrich), 2 mM L-glutamine (Sigma Aldrich), and 1% penicillin/streptomycin mix (Gibco).
On Day 1, anagen VI HFs were selected for further culture. For quality control, only HFs that grew at least 3% from Day 0 to Day 1 were selected for continued experimentation, […]

[5] = tested on: MHC Class I; assay: MHC-I immunostaining of cultured human hair follicles after CD3/CD28 activation; format: cell-based; settings: 70 or 140 nM farudodstat + 25 μg/ml CD3/CD28, vs CD3/CD28 alone
Procedure: as §1
Cryosections of cultured human hair follicles were immunostained, using a monoclonal mouse antibody against human MHC-I (DAKO, Cat. R7000, clone W6/32). Fluorescent images were acquired using the Keyence BZ-X810 inverted microscope and images were analysed using ImageJ software.
as §2
On Day 1, anagen VI HFs were selected for further culture. For quality control, only HFs that grew at least 3% from Day 0 to Day 1 were selected for continued experimentation,
In order to induce hair follicle immune privilege collapse and to activate resident intra/perifollicular immune cells, the hair follicles were pre-treated with CD3/CD28. […]

SMILES: COc1cccc(-c2cc(F)c(Nc3ncccc3C(=O)O)c(F)c2)c1 [farudodstat, 2-(3,5-difluoro-3′-methoxybiphenyl-4-ylamino) nicotinic acid]
- final mean vitiligo score ([1]; 75 mg/kg/day oral gavage, vs vehicle): improvement in vitiligo score compared to the vehicle treated control group
- final mean vitiligo score ([1]; 150 mg/kg/day oral gavage, vs vehicle and vs 75 mg/kg/day): greater improvement in vitiligo score compared to the 75 mg/kg/day group
- mean PMEL count, 150 mg/kg/day compared to 75 mg/kg/day ([2]; 150 mg/kg/day oral gavage, end of experiment, flow cytometry): greater reduction in mean PMEL count compared to 75 mg/kg/day
- mean PMEL T cell count, dermis and epidermis ([2]; 75 and 150 mg/kg/day oral gavage, end of experiment, flow cytometry): reduction in mean Pmel T cell count
- mean PMEL count in the spleen ([2]; oral gavage, compared with anti-IFNγ 250 μg twice a week IP): reduction in mean PMEL count in the spleen that was even greater than that observed for anti-IFNγ
- mean % hair coverage [3]: slight improvement in % hair coverage compared to the mice treated with vehicle
- CD3+ T cell expansion (% of proliferating T-cells in hair follicles) [4]: T cell expansion was reduced
- MHC Class I expression levels in hair follicles [5]: decreased MHC Class I expression levels
